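Values below derive from 48-hour exposures of cells grown in 96-well plates, with endpoints linearly interpolated between the two concentrations bracketing the appropriate inhibition level. Here, GI50 denotes the concentration required for 50% inhibition of growth.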 Calls of active or inactive are those of the source. Cut-off read from the data, not from the text of the source: active = GI50 up to about 1.1 µM and inactive = higher.
What was measured:
Assay in all cases: inhibition of tumour cell growth, NCI panel, 48 h
786-0 = test system: 786-0
A498 = test system: A498
A549 = test system: A549
ACHN = test system: ACHN
BT-549 = test system: BT-549
CAKI-1 = test system: CAKI-1
CCRF-CEM = test system: CCRF-CEM
COLO 205 = test system: COLO 205
DU-145 = test system: DU-145
EKVX = test system: EKVX
HCC 2998 = test system: HCC 2998
HCT-116 = test system: HCT-116
HCT-15 = test system: HCT-15
HL-60 = test system: HL-60
HOP-62 = test system: HOP-62
HOP-92 = test system: HOP-92
HT-29 = test system: HT-29
Hs-578T = test system: Hs-578T
IGROV-1 = test system: IGROV-1
K562 = test system: K562
KM12 = test system: KM12
LOX IMVI = test system: LOX IMVI
M14 = test system: M14
MCF7 = test system: MCF7
MDA-MB-231 = test system: MDA-MB-231
MDA-MB-435 = test system: MDA-MB-435
MDA-N = test system: MDA-N
MOLT-4 = test system: MOLT-4
Malme-3M = test system: Malme-3M
NCI-H226 = test system: NCI-H226
NCI-H23 = test system: NCI-H23
NCI-H522 = test system: NCI-H522
NCI/ADR-RES = test system: NCI/ADR-RES
OVCAR-3 = test system: OVCAR-3
OVCAR-4 = test system: OVCAR-4
OVCAR-5 = test system: OVCAR-5
OVCAR-8 = test system: OVCAR-8
PC-3 = test system: PC-3
RPMI-8226 = test system: RPMI-8226
RXF 393 = test system: RXF 393
SF-268 = test system: SF-268
SF-295 = test system: SF-295
SK-MEL-28 = test system: SK-MEL-28
SK-MEL-2 = test system: SK-MEL-2
SK-MEL-5 = test system: SK-MEL-5
SK-OV-3 = test system: SK-OV-3
SN12C = test system: SN12C
SNB-19 = test system: SNB-19
SNB-75 = test system: SNB-75
SR = test system: SR
SW-620 = test system: SW-620
T47D = test system: T47D
TK-10 = test system: TK-10
U-251 = test system: U-251
UACC-257 = test system: UACC-257
UACC-62 = test system: UACC-62
UO-31 = test system: UO-31

COc1cc(C2S/C(=C/c3ccccc3)C(=O)N2c2ccccn2)cc(OC)c1OC (configuration not stated)
GI50 (786-0): 14.3 µM (inactive)
GI50 (A498): 13.2 µM (inactive)
GI50 (A549): 18.5 µM (inactive)
GI50 (ACHN): 10.5 µM (inactive)
GI50 (BT-549): 13.9 µM (inactive)
GI50 (CAKI-1): 20.1 µM (inactive)
GI50 (CCRF-CEM): 3.57 µM (inactive)
GI50 (COLO 205): 29 µM (inactive)
GI50 (DU-145): 10.3 µM (inactive)
GI50 (EKVX): 24.4 µM (inactive)
GI50 (HCC 2998): 15.7 µM (inactive)
GI50 (HCT-116): 7.16 µM (inactive)
GI50 (HCT-15): 12.8 µM
GI50 (HL-60): 12.4 µM (inactive)
GI50 (HOP-62): 18.6 µM (inactive)
GI50 (HOP-92): 8.3 µM (inactive)
GI50 (HT-29): 11 µM (inactive)
GI50 (Hs-578T): 20.2 µM (inactive)
GI50 (IGROV-1): 11 µM (inactive)
GI50 (K562): 11.9 µM (inactive)
GI50 (KM12): 12.9 µM (inactive)
GI50 (LOX IMVI): 9.59 µM (inactive)
GI50 (M14): 15.1 µM (inactive)
GI50 (MCF7): 11.7 µM (inactive)
GI50 (MDA-MB-231): 24.8 µM (inactive)
GI50 (MDA-MB-435): 11.5 µM (inactive)
GI50 (MDA-N): 14.1 µM (inactive)
GI50 (MOLT-4): 9.55 µM (inactive)
GI50 (Malme-3M): 13.4 µM (inactive)
GI50 (NCI-H226): 45.9 µM (inactive)
GI50 (NCI-H23): 13.7 µM (inactive)
GI50 (NCI-H522): 7.18 µM (inactive)
GI50 (NCI/ADR-RES): 19.5 µM (inactive)
GI50 (OVCAR-3): 12.4 µM (inactive)
GI50 (OVCAR-4): 19.2 µM (inactive)
GI50 (OVCAR-5): 20.8 µM (inactive)
GI50 (OVCAR-8): 9.2 µM (inactive)
GI50 (PC-3): 22.4 µM (inactive)
GI50 (RPMI-8226): 7.53 µM (inactive)
GI50 (RXF 393): 10 µM (inactive)
GI50 (SF-268): 15.2 µM (inactive)
GI50 (SF-295): 24.5 µM (inactive)
GI50 (SK-MEL-28): 23 µM (inactive)
GI50 (SK-MEL-2): 30 µM (inactive)
GI50 (SK-MEL-5): 20.2 µM (inactive)
GI50 (SK-OV-3): 28.2 µM (inactive)
GI50 (SN12C): 15.3 µM (inactive)
GI50 (SNB-19): 18.1 µM (inactive)
GI50 (SNB-75): 6.87 µM (inactive)
GI50 (SR): 3.02 µM (inactive)
GI50 (SW-620): 15.3 µM (inactive)
GI50 (T47D): 7.35 µM (inactive)
GI50 (TK-10): 45.7 µM (inactive)
GI50 (U-251): 10.2 µM (inactive)
GI50 (UACC-257): 33.1 µM (inactive)
GI50 (UACC-62): 14.7 µM (inactive)
GI50 (UO-31): 13.5 µM (inactive)
